# Test system: PBMC (polyclonal gluten-specific T cells) of paediatric and adult CD patients
# Assay: IFN-γ ELISpot of PBMC after 3 day oral wheat challenge (SFU, % of maximal peptide response, dominance scores, EC50; Examples 5-6)
# Assay type: cell-based, human
# Conditions: for Cross-reactive T cell response: following wheat challenge; for IFN-γ ELISpot response: after oral wheat challenge
# [1] = subject I (3-5yrs/6-10yrs part)
# [2] = subject J (3-5yrs/6-10yrs part)
# [3] = subject K (3-5yrs/6-10yrs part)
# [4] = subject V (3-5yrs/6-10yrs part)
# [5] = subject W (3-5yrs/6-10yrs part)
# [6] = subject Y (3-5yrs/6-10yrs part)
# [7] = subject five (3-5yrs/6-10yrs part)
# [8] = subject seven (3-5yrs/6-10yrs part)
# [9] = subject six (3-5yrs/6-10yrs part)
# [10] = subject ten (3-5yrs/6-10yrs part)
# [11] = subject two (3-5yrs/6-10yrs part)
# [12] = patient A, 11-17 yrs, cut-off 10 SFU
# [13] = patient E, H, 11-17 yrs, cut-off 10 SFU
# [14] = patient F, 11-17 yrs, cut-off 10 SFU
# [15] = patient G, 11-17 yrs, cut-off 10 SFU
# [16] = patient H (HLA-DQ2.5 homozygote), 3-5yrs, cut-off 10 SFU
# [17] = patient H, 11-17 yrs, cut-off 10 SFU
# [18] = patient ID not given, 11-17 yrs, cut-off 10 SFU
# [19] = patient N, 3-5yrs, cut-off 10 SFU
# [20] = patient P, 11-17 yrs, cut-off 21.6 SFU
# [21] = patient Q, 11-17 yrs, cut-off 10 SFU
# [22] = patient U, H, 11-17 yrs, cut-off 10 SFU
# [23] = patient V, 6-10 yrs, cut-off 10 SFU
# [24] = patient Y, 6-10 yrs, cut-off 10 SFU
# [25] = patient eleven, 6-10 yrs, cut-off 10 SFU
# [26] = patient four, 3-5yrs, cut-off 10 SFU
# [27] = patient seven, 6-10 yrs, cut-off 10.5 SFU
# [28] = patient ten, 3-5yrs, cut-off 10 SFU
# [29] = patient three, 6-10 yrs, cut-off 10.5 SFU
# [30] = patient twelve, 11-17 yrs, cut-off 10 SFU
# [31] = patient two, 3-5yrs, cut-off 10 SFU
# [32] = patient D, max peptide 30.5 SFU
# [33] = patient ID not given, max peptide 95 SFU
# [34] = patient five, max peptide 48 SFU
# [35] = patient two, max peptide 60 SFU
sequence,measurement,setting,value
PEQPFQPEQPFPQQ,Cross-reactive T cell response,"subject A, 11-17yrs",2 SFU
same,Cross-reactive T cell response,"subject D, 11-17yrs",1 SFU
same,Significant response as a percentage of maximal peptide SFU,"subject E, 11-17yrs",(6-10% - ^)
same,Cross-reactive T cell response,"subject E, 11-17yrs",12 SFU
same,Cross-reactive T cell response,"subject F, 11-17yrs",6 SFU
same,Cross-reactive T cell response,"subject G, 11-17yrs",5 SFU
same,Cross-reactive T cell response,subject H,3 SFU
same,Cross-reactive T cell response,[1],1 SFU
same,Significant response as a percentage of maximal peptide SFU,subject J,′ (11-20% = ′)
same,Cross-reactive T cell response,[2],31 SFU
same,Cross-reactive T cell response,[3],8 SFU
same,Cross-reactive T cell response,"subject P, 11-17yrs",9 SFU
same,Cross-reactive T cell response,"subject Q, 11-17yrs",7 SFU
same,Significant response as a percentage of maximal peptide SFU,"subject T, 11-17yrs",′ (11-20% = ′)
same,Cross-reactive T cell response,"subject T, 11-17yrs",11 SFU
same,Cross-reactive T cell response,"subject U, 11-17yrs",6 SFU
same,Cross-reactive T cell response,[4],7 SFU
same,Cross-reactive T cell response,[5],3 SFU
same,Cross-reactive T cell response,[6],1 SFU
same,Cross-reactive T cell response,[7],3 SFU
same,Cross-reactive T cell response,"subject nine, 11-17yrs",0 SFU
same,Cross-reactive T cell response,[8],7 SFU
same,Cross-reactive T cell response,[9],2 SFU
same,Significant response as a percentage of maximal peptide SFU,subject ten,+ (>70% = +)
same,Cross-reactive T cell response,[10],12 SFU
same,Cross-reactive T cell response,[11],6 SFU
PEQPQPFPEQPVPQQP,Cross-reactive T cell response,"subject A, 11-17yrs",3 SFU
same,Cross-reactive T cell response,"subject D, 11-17yrs",3 SFU
same,Cross-reactive T cell response,"subject E, 11-17yrs",4 SFU
same,Cross-reactive T cell response,"subject F, 11-17yrs",6 SFU
same,Cross-reactive T cell response,"subject G, 11-17yrs",1 SFU
same,Cross-reactive T cell response,subject H,0 SFU
same,Cross-reactive T cell response,[1],0 SFU
same,Cross-reactive T cell response,[2],7 SFU
same,Cross-reactive T cell response,[3],4 SFU
same,Cross-reactive T cell response,"subject P, 11-17yrs",8 SFU
same,Cross-reactive T cell response,"subject Q, 11-17yrs",6 SFU
same,Cross-reactive T cell response,"subject T, 11-17yrs",5 SFU
same,Cross-reactive T cell response,"subject U, 11-17yrs",1 SFU
same,Cross-reactive T cell response,[4],3 SFU
same,Cross-reactive T cell response,[5],4 SFU
same,Cross-reactive T cell response,[6],2 SFU
same,Cross-reactive T cell response,[7],0 SFU
same,Cross-reactive T cell response,"subject nine, 11-17yrs",0 SFU
same,Cross-reactive T cell response,[8],4 SFU
same,Cross-reactive T cell response,[9],2 SFU
same,Significant response as a percentage of maximal peptide SFU,subject ten,+ (>70% = +)
same,Cross-reactive T cell response,[10],11 SFU
same,Cross-reactive T cell response,[11],3 SFU
PEQTFPEQPQLPF,IFN-γ ELISpot response,[12],3 SFU
same,IFN-γ ELISpot response,[13],19 SFU
same,Significant response as percentage of maximal peptide SFU,"patient E, max peptide 224 SFU",(6-10% = ^)
same,IFN-γ ELISpot response,[14],1 SFU
same,IFN-γ ELISpot response,[15],15 SFU
same,Significant response as percentage of maximal peptide SFU,"patient G, max peptide 15 SFU",+ (>70% = +)
same,IFN-γ ELISpot response,[16],2 SFU
same,IFN-γ ELISpot response,[17],9 SFU
same,IFN-γ ELISpot response,[18],0 SFU
same,Significant response as percentage of maximal peptide SFU,"patient J, max peptide 196 SFU",+ (>70% = +)
same,Significant response as percentage of maximal peptide SFU,"patient K, max peptide 53 SFU",′′′ (41-70% = ′′′)
same,IFN-γ ELISpot response,[19],1 SFU
same,IFN-γ ELISpot response,[20],4 SFU
same,IFN-γ ELISpot response,[21],2 SFU
same,IFN-γ ELISpot response,[22],1 SFU
same,IFN-γ ELISpot response,[23],4 SFU
same,IFN-γ ELISpot response,[24],1 SFU
same,IFN-γ ELISpot response,[25],0 SFU
same,IFN-γ ELISpot response,[26],0 SFU
same,IFN-γ ELISpot response,[27],4 SFU
same,IFN-γ ELISpot response,[28],4 SFU
same,IFN-γ ELISpot response,[29],179 SFU
same,IFN-γ ELISpot response,[30],0 SFU
same,IFN-γ ELISpot response,[31],1 SFU
PFPEQPEQPFPQP,IFN-γ ELISpot response,[12],4 SFU
same,Significant response as percentage of maximal peptide SFU,[32],′′ (21-40% = ′′)
same,IFN-γ ELISpot response,[13],30 SFU
same,Significant response as percentage of maximal peptide SFU,"patient E, max peptide 224 SFU",′ (11-20% = ′)
same,IFN-γ ELISpot response,[14],32 SFU
same,Significant response as percentage of maximal peptide SFU,"patient F, max peptide 178 SFU",′ (11-20% = ′)
same,IFN-γ ELISpot response,[15],5 SFU
same,IFN-γ ELISpot response,[16],19 SFU
same,IFN-γ ELISpot response,[17],17 SFU
same,Significant response as percentage of maximal peptide SFU,"patient H, max peptide 17 SFU",+ (>70% = +)
same,IFN-γ ELISpot response,[18],24 SFU
same,Significant response as percentage of maximal peptide SFU,[33],′′ (21-40% = ′′)
same,Significant response as percentage of maximal peptide SFU,"patient J, max peptide 196 SFU",′′ (21-40% = ′′)
same,Significant response as percentage of maximal peptide SFU,"patient K, max peptide 53 SFU",′′ (21-40% = ′′)
same,Significant response as percentage of maximal peptide SFU,"patient M, max peptide 48 SFU",′′ (21-40% = ′′)
same,IFN-γ ELISpot response,[19],2 SFU
same,IFN-γ ELISpot response,[20],8 SFU
same,IFN-γ ELISpot response,[21],35 SFU
same,Significant response as percentage of maximal peptide SFU,"patient Q, max peptide 97 SFU",′′ (21-40% = ′′)
same,IFN-γ ELISpot response,[22],13 SFU
same,Significant response as percentage of maximal peptide SFU,"patient U, max peptide 81 SFU",′ (11-20% = ′)
same,IFN-γ ELISpot response,[23],16 SFU
same,Significant response as percentage of maximal peptide SFU,"patient V, max peptide 35 SFU",′′′ (41-70% = ′′′)
same,IFN-γ ELISpot response,[24],4 SFU
same,IFN-γ ELISpot response,[25],4 SFU
same,Significant response as percentage of maximal peptide SFU,[34],′′ (21-40% = ′′)
same,IFN-γ ELISpot response,[26],6 SFU
same,IFN-γ ELISpot response,[27],9 SFU
same,IFN-γ ELISpot response,[28],5 SFU
same,IFN-γ ELISpot response,[29],51 SFU
same,IFN-γ ELISpot response,[30],11 SFU
same,IFN-γ ELISpot response,[31],24 SFU
same,Significant response as percentage of maximal peptide SFU,[35],′′ (21-40% = ′′)
PFPEQPEQPYPQQ,IFN-γ ELISpot response,[12],0 SFU
same,IFN-γ ELISpot response,[13],14 SFU
same,Significant response as percentage of maximal peptide SFU,"patient E, max peptide 224 SFU",(6-10% = ^)
same,IFN-γ ELISpot response,[14],8 SFU
same,IFN-γ ELISpot response,[15],1 SFU
same,IFN-γ ELISpot response,[16],11 SFU
same,IFN-γ ELISpot response,[17],1 SFU
same,IFN-γ ELISpot response,[18],14 SFU
same,Significant response as percentage of maximal peptide SFU,[33],′ (11-20% = ′)
same,Significant response as percentage of maximal peptide SFU,"patient II, max peptide 15 SFU",+ (>70% = +)
same,Significant response as percentage of maximal peptide SFU,"patient M, max peptide 48 SFU",′ (11-20% = ′)
same,IFN-γ ELISpot response,[19],1 SFU
same,IFN-γ ELISpot response,[20],15 SFU
same,IFN-γ ELISpot response,[21],19 SFU
same,Significant response as percentage of maximal peptide SFU,"patient Q, max peptide 97 SFU",′ (11-20% = ′)
same,IFN-γ ELISpot response,[22],2 SFU
same,IFN-γ ELISpot response,[23],7 SFU
same,IFN-γ ELISpot response,[24],5 SFU
same,IFN-γ ELISpot response,[25],3 SFU
same,Significant response as percentage of maximal peptide SFU,[34],′′ (21-40% = ′′)
same,IFN-γ ELISpot response,[26],4 SFU
same,IFN-γ ELISpot response,[27],3 SFU
same,IFN-γ ELISpot response,[28],5 SFU
same,IFN-γ ELISpot response,[29],9 SFU
same,IFN-γ ELISpot response,[30],2 SFU
same,IFN-γ ELISpot response,[31],6 SFU
PFPLQPEQPFPQP,IFN-γ ELISpot response,[12],6 SFU
same,Significant response as percentage of maximal peptide SFU,[32],′′′ (41-70% = ′′′)
same,IFN-γ ELISpot response,[13],30 SFU
same,Significant response as percentage of maximal peptide SFU,"patient E, max peptide 224 SFU",′ (11-20% = ′)
same,IFN-γ ELISpot response,[14],35 SFU
same,Significant response as percentage of maximal peptide SFU,"patient F, max peptide 178 SFU",′ (11-20% = ′)
same,IFN-γ ELISpot response,[15],2 SFU
same,IFN-γ ELISpot response,[16],24 SFU
same,IFN-γ ELISpot response,[17],11 SFU
same,Significant response as percentage of maximal peptide SFU,"patient H, max peptide 17 SFU",′′′ (41-70% = ′′′)
same,IFN-γ ELISpot response,[18],28 SFU
same,Significant response as percentage of maximal peptide SFU,[33],′′ (21-40% = ′′)
same,Significant response as percentage of maximal peptide SFU,"patient II, max peptide 15 SFU",+ (>70% = +)
same,Significant response as percentage of maximal peptide SFU,"patient J, max peptide 196 SFU",′′ (21-40% = ′′)
same,Significant response as percentage of maximal peptide SFU,"patient K, max peptide 53 SFU",′′′ (41-70% = ′′′)
same,Significant response as percentage of maximal peptide SFU,"patient M, max peptide 48 SFU",′′′ (41-70% = ′′′)
same,IFN-γ ELISpot response,[19],7 SFU
same,IFN-γ ELISpot response,[20],27 SFU
same,Significant response as percentage of maximal peptide SFU,"patient P, max peptide 64 SFU",′′′ (41-70% = ′′′)
same,IFN-γ ELISpot response,[21],43 SFU
same,Significant response as percentage of maximal peptide SFU,"patient Q, max peptide 97 SFU",′′′ (41-70% = ′′′)
same,IFN-γ ELISpot response,[22],23 SFU
same,Significant response as percentage of maximal peptide SFU,"patient U, max peptide 81 SFU",′′ (21-40% = ′′)
same,IFN-γ ELISpot response,[23],21 SFU
same,Significant response as percentage of maximal peptide SFU,"patient V, max peptide 35 SFU",′′′ (41-70% = ′′′)
same,Significant response as percentage of maximal peptide SFU,"patient W, max peptide 30 SFU",+ (>70% = +)
same,IFN-γ ELISpot response,[24],9 SFU
same,Significant response as percentage of maximal peptide SFU,"patient eight, max peptide 12 SFU",+ (>70% = +)
same,IFN-γ ELISpot response,[25],8 SFU
same,Significant response as percentage of maximal peptide SFU,[34],+ (>70% = +)
same,IFN-γ ELISpot response,[26],22 SFU
same,Significant response as percentage of maximal peptide SFU,"patient four, max peptide 44 SFU",′′′ (41-70% = ′′′)
same,IFN-γ ELISpot response,[27],27 SFU
same,Significant response as percentage of maximal peptide SFU,"patient seven, max peptide 27 SFU",+ (>70% = +)
same,IFN-γ ELISpot response,[28],8 SFU
same,IFN-γ ELISpot response,[29],52 SFU
same,IFN-γ ELISpot response,[30],15 SFU
same,IFN-γ ELISpot response,[31],24 SFU
same,Significant response as percentage of maximal peptide SFU,[35],′′ (21-40% = ′′)

# Reference: patent publication US20170232083A1, “METHODS OF DIAGNOSIS AND TREATMENT OF CELIAC DISEASE IN CHILDREN” (priority 2014, published 2017)
